According to ChEMBL document CHEMBL1201862, “PubChem BioAssay data set” (2004):
Activity calls are given as the source filed them.

What was measured:
[1] = HEK-293T viability loss after treatment – luminescence, T-cell screen hits, cytotoxicity control for TCR NF-kB inhibitor project, dose response (AID 489026); type: functional, cell-based;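 also: cells exposed to compound about 14 hours before the viability readout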
BJ [2] = test: BJ-TERT fibroblast viability loss – cell-based, RAS-independent, luminescence, dose response (AID 1933); type: functional; conditions: Homo sapiens
[3] = DRD fibroblast viability loss – cell-based, non-viral oncogenic, luminescence, dose response (AID 1934); type: functional; conditions: Homo sapiens
BJ [4] = test: cells; type: functional, cell-based; conditions: Homo sapiens
[5] = Luminescence Cell-Based Dose Retest to Confirm Inhibitors of Cancer Stem Cells. [Related pubchem assays (depositor defined):AID2717, AID2721]; type: functional; conditions: Homo sapiens
BJ [6] = test: BJ-TERT-LT-ST fibroblast viability loss – cell-based, RAS-independent, luminescence, dose response (AID 1935); type: functional; conditions: Homo sapiens;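 also: BJ fibroblasts immortalized with TERT plus LT and ST oncogenes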
Large T antigen = Large T antigen (Simian virus 40, UniProt P03070); type: functional, Betapolyomavirus macacae;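 also: Confirmatory-stage PubChem screen for compounds that inhibit SV40 T antigen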
Large T antigen, sequence (P03070 whole entry): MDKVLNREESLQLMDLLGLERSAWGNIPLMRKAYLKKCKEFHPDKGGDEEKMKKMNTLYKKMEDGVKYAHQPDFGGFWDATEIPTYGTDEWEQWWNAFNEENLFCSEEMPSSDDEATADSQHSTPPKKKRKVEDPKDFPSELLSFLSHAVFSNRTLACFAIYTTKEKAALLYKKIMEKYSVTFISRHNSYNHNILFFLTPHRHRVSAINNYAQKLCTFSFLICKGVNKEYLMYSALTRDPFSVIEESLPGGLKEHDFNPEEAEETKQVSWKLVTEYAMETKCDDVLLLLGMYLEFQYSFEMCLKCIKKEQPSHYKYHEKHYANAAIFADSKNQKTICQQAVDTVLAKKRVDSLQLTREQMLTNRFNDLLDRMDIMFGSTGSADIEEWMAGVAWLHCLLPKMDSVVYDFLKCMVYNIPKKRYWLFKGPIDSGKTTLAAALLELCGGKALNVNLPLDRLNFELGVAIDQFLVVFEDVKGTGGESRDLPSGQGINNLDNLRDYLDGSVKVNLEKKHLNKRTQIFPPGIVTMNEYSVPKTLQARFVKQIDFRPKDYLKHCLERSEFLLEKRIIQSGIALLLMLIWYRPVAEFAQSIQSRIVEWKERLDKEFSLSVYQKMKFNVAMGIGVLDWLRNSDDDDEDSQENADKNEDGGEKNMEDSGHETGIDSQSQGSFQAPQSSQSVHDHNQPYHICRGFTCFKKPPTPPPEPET

Nonstructural protein 1 = Nonstructural protein 1 (Influenza A virus, UniProt Q194T2); type: functional, Influenza A virus (A/California/07/2009(H1N1))
Nonstructural protein 1, sequence (Q194T2 whole entry): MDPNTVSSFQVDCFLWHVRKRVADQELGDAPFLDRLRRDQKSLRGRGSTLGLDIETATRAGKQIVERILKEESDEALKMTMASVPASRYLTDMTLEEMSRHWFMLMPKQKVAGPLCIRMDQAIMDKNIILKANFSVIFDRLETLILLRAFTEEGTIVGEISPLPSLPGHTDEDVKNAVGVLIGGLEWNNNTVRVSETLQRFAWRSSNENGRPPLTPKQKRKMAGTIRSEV

[7] = target: T1, Sentrin-specific protease 6 (Homo sapiens, UniProt Q9GZR1); type: functional;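 also: Luminescence-based dose-response confirmatory assay of SENP6 inhibition, following up an ultra-high-throughput screen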
T1 sequence (Q9GZR1 whole entry): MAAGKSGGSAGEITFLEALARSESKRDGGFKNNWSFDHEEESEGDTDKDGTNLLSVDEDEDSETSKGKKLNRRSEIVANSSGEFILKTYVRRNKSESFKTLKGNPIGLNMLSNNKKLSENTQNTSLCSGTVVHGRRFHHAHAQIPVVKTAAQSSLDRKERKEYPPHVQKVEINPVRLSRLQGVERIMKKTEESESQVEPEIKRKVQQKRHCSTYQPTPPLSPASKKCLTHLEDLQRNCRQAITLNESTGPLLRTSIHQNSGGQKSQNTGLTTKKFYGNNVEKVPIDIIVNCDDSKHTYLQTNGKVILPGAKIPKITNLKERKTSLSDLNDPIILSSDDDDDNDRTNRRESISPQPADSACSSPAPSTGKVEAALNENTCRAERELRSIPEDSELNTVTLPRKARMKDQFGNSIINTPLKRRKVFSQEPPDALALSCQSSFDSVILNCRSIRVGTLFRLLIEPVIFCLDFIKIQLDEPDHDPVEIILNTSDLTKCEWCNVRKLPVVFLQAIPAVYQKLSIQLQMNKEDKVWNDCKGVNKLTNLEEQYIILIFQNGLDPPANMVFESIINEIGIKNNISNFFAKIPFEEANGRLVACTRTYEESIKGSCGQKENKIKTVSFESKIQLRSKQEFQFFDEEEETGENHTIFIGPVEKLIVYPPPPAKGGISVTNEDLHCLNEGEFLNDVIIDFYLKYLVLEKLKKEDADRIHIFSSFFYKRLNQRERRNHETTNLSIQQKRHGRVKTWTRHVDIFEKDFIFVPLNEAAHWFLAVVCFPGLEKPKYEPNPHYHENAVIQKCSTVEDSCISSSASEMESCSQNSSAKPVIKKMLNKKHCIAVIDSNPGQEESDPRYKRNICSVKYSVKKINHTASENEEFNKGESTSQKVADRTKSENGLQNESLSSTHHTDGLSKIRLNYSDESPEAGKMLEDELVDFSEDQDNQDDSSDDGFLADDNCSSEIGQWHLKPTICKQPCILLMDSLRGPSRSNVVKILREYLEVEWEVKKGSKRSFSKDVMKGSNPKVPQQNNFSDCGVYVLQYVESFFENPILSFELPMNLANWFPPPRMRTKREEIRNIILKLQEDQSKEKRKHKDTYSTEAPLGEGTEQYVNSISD

[8] = target: T2, Sentrin-specific protease 7 (Homo sapiens, UniProt Q9BQF6); type: functional;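 also: Luminescence-based dose-response confirmation of ultra-high-throughput screening hits, measuring inhibition of SENP7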
T2 sequence (Q9BQF6 whole entry): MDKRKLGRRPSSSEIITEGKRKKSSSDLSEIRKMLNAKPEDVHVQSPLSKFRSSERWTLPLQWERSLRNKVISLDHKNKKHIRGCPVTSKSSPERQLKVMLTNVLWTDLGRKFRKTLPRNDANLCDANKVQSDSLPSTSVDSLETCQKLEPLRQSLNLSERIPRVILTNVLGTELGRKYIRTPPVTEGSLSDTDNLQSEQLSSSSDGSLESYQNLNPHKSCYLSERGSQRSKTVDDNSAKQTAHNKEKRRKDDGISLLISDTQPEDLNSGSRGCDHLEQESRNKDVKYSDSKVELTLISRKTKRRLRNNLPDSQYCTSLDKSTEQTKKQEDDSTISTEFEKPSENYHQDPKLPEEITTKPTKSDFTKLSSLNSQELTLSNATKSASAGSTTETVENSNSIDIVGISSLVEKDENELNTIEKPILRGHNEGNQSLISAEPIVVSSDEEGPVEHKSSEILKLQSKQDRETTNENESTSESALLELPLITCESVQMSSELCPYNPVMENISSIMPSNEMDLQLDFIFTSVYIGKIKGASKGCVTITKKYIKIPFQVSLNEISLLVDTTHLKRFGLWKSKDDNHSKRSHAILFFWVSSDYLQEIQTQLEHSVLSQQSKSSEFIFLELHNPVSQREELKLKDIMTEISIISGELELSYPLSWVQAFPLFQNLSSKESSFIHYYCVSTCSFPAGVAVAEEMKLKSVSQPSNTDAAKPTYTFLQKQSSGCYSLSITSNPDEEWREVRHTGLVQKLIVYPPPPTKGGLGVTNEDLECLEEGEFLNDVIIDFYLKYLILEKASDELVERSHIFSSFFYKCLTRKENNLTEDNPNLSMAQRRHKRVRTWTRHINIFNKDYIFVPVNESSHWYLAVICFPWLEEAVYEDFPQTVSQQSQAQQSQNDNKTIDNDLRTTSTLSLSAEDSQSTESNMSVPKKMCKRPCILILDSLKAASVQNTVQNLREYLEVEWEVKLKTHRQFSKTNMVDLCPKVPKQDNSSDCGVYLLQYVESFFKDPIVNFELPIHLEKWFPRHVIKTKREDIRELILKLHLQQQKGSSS

Caspase-3 = target: T3, Caspase-3 (Homo sapiens, UniProt P42574); type: functional;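 also: Dose-response selectivity test against caspase-3 for candidate inhibitors of sentrin-specific proteases (SENPs)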
T3 sequence (P42574 whole entry): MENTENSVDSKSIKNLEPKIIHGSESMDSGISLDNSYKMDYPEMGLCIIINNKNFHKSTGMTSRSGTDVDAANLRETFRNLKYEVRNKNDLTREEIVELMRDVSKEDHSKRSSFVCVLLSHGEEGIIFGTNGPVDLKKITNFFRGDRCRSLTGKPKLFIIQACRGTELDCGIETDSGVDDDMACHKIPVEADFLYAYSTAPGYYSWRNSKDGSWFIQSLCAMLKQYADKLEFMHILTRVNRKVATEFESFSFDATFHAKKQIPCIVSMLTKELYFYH

[9] = target: T4, Sentrin-specific protease 8 (Homo sapiens, UniProt Q96LD8); type: functional;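 also: luminescence read-out of SENP8 inhibition, dose-response confirmation following an ultra-high-throughput screen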
T4 sequence (Q96LD8 whole entry): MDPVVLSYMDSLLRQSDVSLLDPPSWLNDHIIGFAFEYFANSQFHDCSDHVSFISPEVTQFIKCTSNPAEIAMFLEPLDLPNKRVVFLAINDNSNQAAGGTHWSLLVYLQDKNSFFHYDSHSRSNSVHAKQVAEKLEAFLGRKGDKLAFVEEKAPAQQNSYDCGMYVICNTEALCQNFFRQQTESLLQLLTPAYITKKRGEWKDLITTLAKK

[10] = target: T5, Heat shock factor protein 1 (Mus musculus, UniProt P38532); test: decrease of HSF1-responsive luciferase luminescence – cell-based, NIH3T3, dose retest, confirmation (AID 2382); type: functional;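 also: NIH3T3 fibroblasts with HSF1-driven luciferase reporter stressed by proteasome inhibitor MG132; luminescence from HSF1-driven luciferase expression after 8 hours of MG132 stress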
T5 sequence (P38532 whole entry): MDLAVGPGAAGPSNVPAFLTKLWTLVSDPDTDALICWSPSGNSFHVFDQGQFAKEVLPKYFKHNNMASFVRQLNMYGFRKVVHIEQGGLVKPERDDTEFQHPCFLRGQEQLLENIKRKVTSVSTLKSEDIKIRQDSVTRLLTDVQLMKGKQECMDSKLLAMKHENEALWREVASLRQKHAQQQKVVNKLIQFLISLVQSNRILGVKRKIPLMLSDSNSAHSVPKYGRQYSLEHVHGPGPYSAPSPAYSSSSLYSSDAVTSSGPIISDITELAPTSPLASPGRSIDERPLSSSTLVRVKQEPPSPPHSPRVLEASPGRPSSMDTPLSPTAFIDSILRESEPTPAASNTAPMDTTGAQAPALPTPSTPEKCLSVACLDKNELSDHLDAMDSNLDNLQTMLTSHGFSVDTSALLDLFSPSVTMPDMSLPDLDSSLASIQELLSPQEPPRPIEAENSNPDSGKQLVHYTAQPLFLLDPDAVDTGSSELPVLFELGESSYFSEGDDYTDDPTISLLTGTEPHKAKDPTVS

Genome polyprotein = Genome polyprotein (dengue virus type 2, UniProt P29990); test: flavivirus cap methylation enzyme inhibition – biochemical, confirmation dose response, primary screen (AID 588689); type: functional
Genome polyprotein, sequence (P29990 2492-3391 limits assumed): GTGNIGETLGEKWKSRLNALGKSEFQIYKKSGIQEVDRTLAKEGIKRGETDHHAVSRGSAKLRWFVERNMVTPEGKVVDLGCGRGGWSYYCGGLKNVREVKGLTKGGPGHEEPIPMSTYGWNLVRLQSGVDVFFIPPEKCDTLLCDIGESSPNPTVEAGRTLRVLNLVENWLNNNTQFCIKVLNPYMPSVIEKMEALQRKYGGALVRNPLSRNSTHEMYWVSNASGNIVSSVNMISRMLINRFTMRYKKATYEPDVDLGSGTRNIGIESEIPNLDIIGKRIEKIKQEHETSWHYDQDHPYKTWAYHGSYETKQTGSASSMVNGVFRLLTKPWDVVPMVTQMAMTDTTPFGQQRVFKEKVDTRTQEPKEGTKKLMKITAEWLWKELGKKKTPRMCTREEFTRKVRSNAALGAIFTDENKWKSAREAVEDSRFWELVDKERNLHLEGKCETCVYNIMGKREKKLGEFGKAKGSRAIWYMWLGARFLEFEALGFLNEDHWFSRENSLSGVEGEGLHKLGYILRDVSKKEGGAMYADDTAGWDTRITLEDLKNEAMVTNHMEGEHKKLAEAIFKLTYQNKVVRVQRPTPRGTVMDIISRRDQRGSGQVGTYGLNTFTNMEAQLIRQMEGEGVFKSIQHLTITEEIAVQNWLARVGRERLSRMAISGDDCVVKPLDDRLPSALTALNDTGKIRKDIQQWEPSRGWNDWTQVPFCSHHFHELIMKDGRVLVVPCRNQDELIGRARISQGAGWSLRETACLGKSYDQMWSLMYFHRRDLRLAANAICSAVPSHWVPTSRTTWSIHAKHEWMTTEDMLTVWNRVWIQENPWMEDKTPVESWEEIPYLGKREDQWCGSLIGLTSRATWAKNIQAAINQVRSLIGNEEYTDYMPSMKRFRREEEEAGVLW

[11] = viability of HCT116 lacking mutant beta-catenin – cell-based, human colon tumor, dose response (AID 1045); type: functional;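 also: HCT116 colon tumor cells with beta catenin knocked out; cells exposed to compound for 60 hours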
[12] = viability of PTEN-deleted HCT116 cells – cell-based, HCT116 PTEN knockout, dose response (AID 1047); type: functional;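 also: HCT116 colon tumor cells with PTEN knocked out; cells exposed to compound for 60 hours before readout; potency for loss of cell viability measured by luminescence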
[13] = target: T6, Replicative DNA helicase DnaB (Mycobacterium tuberculosis, UniProt P9WMR3); test: DnaB intein splicing inhibitors, dose response, biochemical, cell-free fluorescence (AID 449749); type: functional
T6 sequence (P9WMR3 whole entry): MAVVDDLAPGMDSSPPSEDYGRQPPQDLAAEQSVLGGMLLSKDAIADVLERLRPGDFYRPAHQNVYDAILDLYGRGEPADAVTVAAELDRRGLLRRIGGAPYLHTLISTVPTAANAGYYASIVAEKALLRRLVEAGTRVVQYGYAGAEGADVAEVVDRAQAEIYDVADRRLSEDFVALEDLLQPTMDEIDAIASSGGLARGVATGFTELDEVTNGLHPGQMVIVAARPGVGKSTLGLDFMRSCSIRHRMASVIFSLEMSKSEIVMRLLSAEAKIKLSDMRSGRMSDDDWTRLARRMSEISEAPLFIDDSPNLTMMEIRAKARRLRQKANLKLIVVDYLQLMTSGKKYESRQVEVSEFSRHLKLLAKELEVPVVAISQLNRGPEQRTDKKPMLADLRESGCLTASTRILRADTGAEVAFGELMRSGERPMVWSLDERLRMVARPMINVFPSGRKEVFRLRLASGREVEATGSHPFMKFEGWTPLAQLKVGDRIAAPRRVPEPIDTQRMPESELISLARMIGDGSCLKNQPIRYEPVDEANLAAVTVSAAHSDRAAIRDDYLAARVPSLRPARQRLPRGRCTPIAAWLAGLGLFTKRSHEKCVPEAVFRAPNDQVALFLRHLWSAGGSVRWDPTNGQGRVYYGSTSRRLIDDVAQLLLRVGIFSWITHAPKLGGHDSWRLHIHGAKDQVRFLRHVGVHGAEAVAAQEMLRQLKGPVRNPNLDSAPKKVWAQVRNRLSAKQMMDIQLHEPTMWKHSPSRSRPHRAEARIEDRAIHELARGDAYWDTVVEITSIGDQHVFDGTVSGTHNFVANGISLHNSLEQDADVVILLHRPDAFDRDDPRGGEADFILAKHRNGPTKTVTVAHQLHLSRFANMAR

Protein RecA = target: T7, Protein RecA (Mycobacterium tuberculosis, UniProt P9WHJ3); test: Fluorescence Cell-Free Homogeneous Dose Retest to Identify Inhibitors of RecA-Intein Splicing Activity. [Related pubchem assays (depositor defined):AID2097, AID2223, AID489010, AID492950]; type: functional
T7 sequence (P9WHJ3 whole entry): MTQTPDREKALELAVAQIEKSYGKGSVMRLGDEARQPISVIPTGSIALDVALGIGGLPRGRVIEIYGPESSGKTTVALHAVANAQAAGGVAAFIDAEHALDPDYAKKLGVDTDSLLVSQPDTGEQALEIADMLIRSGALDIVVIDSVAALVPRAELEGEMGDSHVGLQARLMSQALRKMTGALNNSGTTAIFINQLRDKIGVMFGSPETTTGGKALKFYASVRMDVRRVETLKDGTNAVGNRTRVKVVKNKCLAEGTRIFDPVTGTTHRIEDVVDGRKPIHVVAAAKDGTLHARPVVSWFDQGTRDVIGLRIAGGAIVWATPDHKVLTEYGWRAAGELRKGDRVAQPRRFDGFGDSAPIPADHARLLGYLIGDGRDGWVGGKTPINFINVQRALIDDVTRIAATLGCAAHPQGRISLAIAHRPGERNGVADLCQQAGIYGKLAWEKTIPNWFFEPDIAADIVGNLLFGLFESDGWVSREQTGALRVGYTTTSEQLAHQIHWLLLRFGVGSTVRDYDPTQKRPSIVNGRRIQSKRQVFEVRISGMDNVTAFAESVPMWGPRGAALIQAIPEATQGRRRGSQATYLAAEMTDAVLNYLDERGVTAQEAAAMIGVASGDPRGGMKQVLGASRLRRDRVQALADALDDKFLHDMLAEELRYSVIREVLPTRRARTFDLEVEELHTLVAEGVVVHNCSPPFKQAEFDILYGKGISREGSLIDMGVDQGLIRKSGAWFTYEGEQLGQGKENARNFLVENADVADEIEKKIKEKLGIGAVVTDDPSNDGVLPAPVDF

## COc1ccc(/C=N\NC(=O)c2ccccc2F)cc1COc1ccc(F)cc1F
[1]
  IC50: > 80 µM (inactive)

## C=C(C)COc1ccc(-c2n[nH]cc2-c2ccc(OC)c(OC)c2)c(O)c1
BJ [2]
  EC50: 8.31 µM (active)
[1]
  IC50: 34.3 µM (inactive)
[3]
  EC50: 2.4 µM (active)
BJ [4]
  EC50: 1.84 µM (active)
[5]
  AC50: 0.882 µM (active)
BJ [6]
  EC50: 2.48 µM (active)

## O=C(Nc1ccc(O)cc1)/C(=C\c1ccncc1)NC(=O)c1ccccc1
Large T antigen
  IC50: 27.7 µM (active)

## Nn1c(SC/C=C/c2ccccc2)nnc1-c1ccccn1
Nonstructural protein 1
  IC50: 24 µM (active)

## O=C(Nc1ccc2c(c1)CCC2)c1ccc(Br)s1
[7]
  IC50: 5.03 µM (active)
[8]
  IC50: 3.4 µM (active)
Caspase-3
  IC50: 17.5 µM (active)
[9]
  IC50: 4.31 µM (active)

## CC1=C(C#N)c2nc(N)c(C#N)c(C)c2/C1=C\c1ccc(OCC(=O)O)c(Cl)c1
[10]
  EC50: > 195 µM (not active)
Large T antigen
  IC50: 44.3 µM (active)
Genome polyprotein
  IC50: 35.9 µM (active)

## COc1ccc(CNc2ccc(N3CCOCC3)cc2)cc1
Large T antigen
  IC50: 16.8 µM (active)

## CCOc1cc(C(=O)N/N=C/C(Br)=C/c2ccccc2)cc(OCC)c1OCC
[1]
  IC50: > 80 µM (inactive)
[11]
  EC50: 1.34 µM (active)
[12]
  EC50: 1.39 µM (active)

## Cc1ccc(S(=O)(=O)N2CCN(C(=O)c3ccc(N4CCCC4)c([N+](=O)[O-])c3)CC2)cc1
Nonstructural protein 1
  IC50: > 100 µM (active)

## CC1=NN(Cc2ccccc2)C(=O)/C1=C/c1ccc(N(C)C)cc1
Nonstructural protein 1
  IC50: 50.9 µM (active)
[13]
  AC50: 4.15 µM (active)
Protein RecA
  EC50: 1.22 µM (active)

## CCOC(=O)CSC1=C(C#N)C(c2ccc(C)s2)CC(=O)N1 (stereo not given)
[1]
  IC50: > 80 µM (inactive)
